In patent publication US8030336B2, “Nicotinamide-based kinase inhibitors” (YM Biosciences Australia Pty Ltd, priority 2002, dated 2011):

How the values were obtained:
Assay type in all cases: biochemical
Zap70 = target: T1, Zap70 (Homo sapiens, UniProt P43403); assay: Zap70 kinase assay (ELISA or Alphascreen); conditions: read-out: Zap70 inhibition of enzyme activity
T1 sequence (P43403 338-600 limits assumed): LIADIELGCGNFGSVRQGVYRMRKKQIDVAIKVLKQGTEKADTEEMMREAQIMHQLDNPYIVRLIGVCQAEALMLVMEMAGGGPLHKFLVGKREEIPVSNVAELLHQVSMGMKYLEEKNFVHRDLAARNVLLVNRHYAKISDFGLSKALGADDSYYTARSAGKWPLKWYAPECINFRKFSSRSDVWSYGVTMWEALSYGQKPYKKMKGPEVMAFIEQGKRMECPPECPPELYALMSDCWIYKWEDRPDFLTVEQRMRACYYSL
Method in brief: (§1)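 Affinity-purified PTK domain (~1.5 μg) phosphorylated biotinylated peptide (5 μM final) in 50 mM HEPES pH 7.5, 10 mM MgCl2, 150 mM NaCl, 10 μM-1 mM ATP. Phosphotyrosine read by PY20 ELISA or Alphascreen.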

human JAK2 = target: T2, human JAK2 (Homo sapiens, UniProt O60674); assay: JAK2 kinase assay (ELISA or Alphascreen); conditions: read-out: Jak2 inhibition of enzyme activity
T2 construct: The kinase domain of human JAK2 was amplified from U937mRNA; His tag (from the pFastBac HTc vector) (N); made in house; host or cells: baculovirus; Sf9 for virus, High Five insect cells for production
Method in brief: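 His-tagged human JAK2 kinase domain from baculovirus-infected insect cells, ~1.5 μg per assay, in 50 mM HEPES pH 7.5, 10 mM MgCl2, 150 mM NaCl, with 10 μM–1 mM ATP and 5 μM biotinylated peptide substrate. Phosphotyrosine detected by PY20 ELISA or AlphaScreen.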

fms = target: T3, fms (Homo sapiens, UniProt P07333); assay: fms kinase assay (ELISA or Alphascreen); conditions: read-out: fms inhibition of enzyme activity
T3 sequence (P07333 582-910 limits assumed): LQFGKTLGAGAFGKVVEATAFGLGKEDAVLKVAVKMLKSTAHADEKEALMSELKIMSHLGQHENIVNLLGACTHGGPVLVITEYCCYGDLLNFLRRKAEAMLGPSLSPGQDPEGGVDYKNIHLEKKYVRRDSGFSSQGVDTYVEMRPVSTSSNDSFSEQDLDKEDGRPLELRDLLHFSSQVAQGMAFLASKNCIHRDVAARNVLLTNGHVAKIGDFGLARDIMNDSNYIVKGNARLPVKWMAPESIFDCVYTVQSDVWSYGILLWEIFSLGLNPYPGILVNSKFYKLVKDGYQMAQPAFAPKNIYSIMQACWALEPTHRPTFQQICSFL
Method in brief: as §1

fes = fes (Homo sapiens, UniProt P07332); assay: fes kinase assay (ELISA or Alphascreen); conditions: read-out: fes inhibition of enzyme activity
Method in brief: as §1

human JAK3 = target: T4, human JAK3 (Homo sapiens, UniProt P52333); assay: JAK3 kinase assay (ELISA or Alphascreen); conditions: read-out: Jak3 inhibition of enzyme activity
T4 construct: The kinase domain of human JAK3 was amplified from U937mRNA; His tag (from the pFastBac HTb vector) (N); made in house; host or cells: baculovirus; Sf9 for virus, High Five insect cells for production
Method in brief: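 His-tagged human JAK3 kinase domain from High Five cells, ~1.5 μg per assay, in 50 mM HEPES pH 7.5, 10 mM MgCl2, 150 mM NaCl, 10 μM-1 mM ATP, 5 μM biotinylated peptide substrate. Phosphotyrosine by PY20 ELISA or Alphascreen.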

abl = target: T5, abl (Homo sapiens, UniProt P00519); assay: abl kinase assay (ELISA or Alphascreen); conditions: read-out: abl inhibition of enzyme activity
T5 sequence (P00519 242-493 limits assumed): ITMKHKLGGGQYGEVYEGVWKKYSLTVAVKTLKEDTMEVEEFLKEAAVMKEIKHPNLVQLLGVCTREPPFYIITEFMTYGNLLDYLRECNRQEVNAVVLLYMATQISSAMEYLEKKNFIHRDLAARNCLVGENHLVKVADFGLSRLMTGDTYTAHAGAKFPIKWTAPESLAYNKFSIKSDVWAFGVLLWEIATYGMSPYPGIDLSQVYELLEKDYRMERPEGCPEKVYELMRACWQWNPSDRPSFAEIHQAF
Method in brief: as §1

hck = hck (Homo sapiens, UniProt P08631); assay: hck kinase assay (ELISA or Alphascreen); conditions: read-out: hck inhibition of enzyme activity
Method in brief: as §1

T4 sequence (P52333 822-1111 limits assumed): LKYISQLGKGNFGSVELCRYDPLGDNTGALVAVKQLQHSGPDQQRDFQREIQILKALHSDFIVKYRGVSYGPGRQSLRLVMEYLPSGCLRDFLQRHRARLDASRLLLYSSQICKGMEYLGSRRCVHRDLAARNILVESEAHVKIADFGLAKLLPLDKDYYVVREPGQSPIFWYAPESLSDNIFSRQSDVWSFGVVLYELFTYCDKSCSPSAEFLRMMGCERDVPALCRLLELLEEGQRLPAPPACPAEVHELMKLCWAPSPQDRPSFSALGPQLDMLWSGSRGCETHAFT
hck, sequence (P08631 262-515 limits assumed, species assumed): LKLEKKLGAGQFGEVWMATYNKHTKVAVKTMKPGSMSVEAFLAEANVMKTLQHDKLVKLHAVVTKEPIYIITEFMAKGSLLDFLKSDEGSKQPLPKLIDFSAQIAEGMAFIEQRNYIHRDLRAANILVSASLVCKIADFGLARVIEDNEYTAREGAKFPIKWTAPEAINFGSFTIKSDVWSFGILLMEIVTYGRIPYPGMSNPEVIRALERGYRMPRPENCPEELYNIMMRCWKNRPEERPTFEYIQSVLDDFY
fes, sequence (P07332 561-822 limits assumed, species assumed): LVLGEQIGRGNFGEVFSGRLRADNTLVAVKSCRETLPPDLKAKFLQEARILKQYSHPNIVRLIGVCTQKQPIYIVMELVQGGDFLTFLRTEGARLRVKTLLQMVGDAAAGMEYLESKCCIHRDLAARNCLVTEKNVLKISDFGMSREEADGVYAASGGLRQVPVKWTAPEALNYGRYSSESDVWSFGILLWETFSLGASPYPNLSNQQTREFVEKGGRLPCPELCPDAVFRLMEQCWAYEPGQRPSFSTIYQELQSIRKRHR
T2 sequence (O60674 849-1124 limits assumed): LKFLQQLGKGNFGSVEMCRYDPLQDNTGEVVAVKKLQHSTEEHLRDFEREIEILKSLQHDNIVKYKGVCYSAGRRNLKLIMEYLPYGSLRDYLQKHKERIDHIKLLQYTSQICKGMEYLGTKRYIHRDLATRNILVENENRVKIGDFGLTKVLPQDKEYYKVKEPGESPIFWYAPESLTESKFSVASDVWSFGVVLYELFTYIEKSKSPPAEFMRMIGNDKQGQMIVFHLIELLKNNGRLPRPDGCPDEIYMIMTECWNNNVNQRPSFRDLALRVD

Row | Structure (SMILES) | inhibition at 10 µM (Zap70) [%] | inhibition at 10 µM (human JAK2) [%] | inhibition at 10 µM (fms) [%] | inhibition at 10 µM (fes) [%] | inhibition at 10 µM (human JAK3) [%] | inhibition at 10 µM (abl) [%] | inhibition at 10 µM (hck) [%]
1 | O=C(NCc1ccco1)c1cncc(-c2ccc(O)cc2)c1 | < 50 | < 50 | ≥ 50 | < 50 | < 50 | < 50 | < 50
2 | Cc1cc(-c2cncc(C(=O)NCc3ccncc3)c2)cc(C)c1O | < 50 | < 50 | ≥ 50 | < 50 | < 50 | < 50 | < 50
3 | Cc1cc(-c2cncc(C(=O)NCc3ccco3)c2)cc(C)c1O | ≥ 50 | < 50 | < 50 | < 50 | < 50 | < 50 | < 50
4 | Cc1cc(-c2cncc(C(=O)NC(C)C)c2)cc(C)c1O | ≥ 50 | < 50 | < 50 | < 50 | < 50 | < 50 | < 50
5 | COc1cc(-c2cncc(C(=O)Nc3cc(F)ccc3C)c2)c(Cl)c(OC)c1OC | < 50 | < 50 | ≥ 50 | < 50 | < 50 | < 50 | ≥ 50
6 | CN(C)CCNC(=O)c1cncc(-c2ccc(F)cc2)c1 | < 50 | < 50 | < 50 | < 50 | < 50 | < 50 | < 50
7 | COc1cc(CNC(=O)c2cncc(-c3cc(OC)c(OC)c(OC)c3Cl)c2)cc(OC)c1 | ≥ 50 | ≥ 50 | < 50 | < 50 | < 50 | < 50 | < 50
8 | COc1cc(-c2cncc(C(=O)Nc3ccc(F)cc3C)c2)ccc1O | < 50 | < 50 | < 50 | < 50 | < 50 | ≥ 50 | ≥ 50

Continued, values first:

Row | inhibition at 10 µM (Zap70) [%] | inhibition at 10 µM (human JAK2) [%] | inhibition at 10 µM (fms) [%] | inhibition at 10 µM (fes) [%] | inhibition at 10 µM (human JAK3) [%] | inhibition at 10 µM (abl) [%] | inhibition at 10 µM (hck) [%] | Structure (SMILES)
9 | < 50 | ≥ 50 | ≥ 50 | < 50 | ≥ 50 | < 50 | < 50 | COc1ccc(NC(=O)c2cncc(-c3cccnc3)c2)c(OC)c1
10 | ≥ 50 | < 50 | < 50 | < 50 | < 50 | < 50 | < 50 | COc1cccc([C@H](C)NC(=O)c2cncc(-c3ccc(F)cc3)c2)c1
11 | ≥ 50 | < 50 | < 50 | < 50 | < 50 | < 50 | < 50 | COc1cc(CNC(=O)c2cncc(-c3cccc(OC)c3)c2)cc(OC)c1
12 | ≥ 50 | < 50 | < 50 | < 50 | < 50 | < 50 | < 50 | COc1cccc(-c2cncc(C(=O)NCc3ccco3)c2)c1
13 | ≥ 50 | < 50 | < 50 | < 50 | < 50 | < 50 | < 50 | COc1ccc(CNC(=O)c2cncc(-c3cccc(OC)c3)c2)cc1
14 | ≥ 50 | < 50 | < 50 | < 50 | < 50 | < 50 | < 50 | COc1cccc(-c2cncc(C(=O)NCc3ccc(C)cc3)c2)c1
15 | ≥ 50 | < 50 | < 50 | < 50 | < 50 | < 50 | < 50 | COc1cccc(-c2cncc(C(=O)NCCc3ccccc3)c2)c1
16 | ≥ 50 | < 50 | < 50 | < 50 | < 50 | < 50 | < 50 | COc1cccc(-c2cncc(C(=O)N[C@@H](C)c3cccc(OC)c3)c2)c1
17 | ≥ 50 | < 50 | < 50 | < 50 | < 50 | < 50 | ≥ 50 | COc1cccc(-c2cncc(C(=O)Nc3cc(C)ccc3C)c2)c1
